How the values were obtained:
Aβ42 [1] = test: Screening for γ-secretase-modulating activity, Method 1: Aβ42 sandwich ELISA on SKNBE2 cell media; assay type: cell-based; details: SKNBE2 cells carrying APP 695 wild type
Method in brief: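 SKNBE2 cells expressing wild-type APP695 were treated with compound for 18 h in Ultraculture/1% glutamine. Secreted Aβ42 was quantified by sandwich ELISA (C-terminal capture, biotinylated 3D6, TMB, 450 nm), with WST-1 used as a toxicity check. IC50 was derived from 4-parameter fits of % inhibition or % of untreated control.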

Aβtotal [2] = test: Screening for γ-secretase-modulating activity, Method 1: Aβtotal sandwich ELISA on SKNBE2 cell media; assay type: cell-based; details: SKNBE2 cells carrying APP 695 wild type
Method in brief: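 SKNBE2 cells expressing wild-type APP 695 were treated with compound for 18 hours. Aβtotal in the medium was measured by sandwich ELISA (6E10 capture, biotinylated 4G8 detection, fluorogenic peroxidase read-out). IC50 came from a 4-parameter fit of % inhibition with top/bottom fixed at 100/0 and Hill slope 1, or as averaged IC50 from % of untreated control.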

Aβ42 [3] = test: In vivo efficacy Method 1: brain soluble Aβ42 by ELISA; parameters: species or system mouse; details: Table 4a, single oral dose, overnight fasted animals, sacrificed after 4 h, soluble fraction of brain homogenates
From the text: (§1) To determine whether acute administration of an Aβ42 lowering agent would reduce Aβ42 levels in vivo, non-transgenic rodents, e.g. mice or rats were used. Alternatively, two to three month old Tg2576 mice expressing APP695 containing the “Swedish” variant can be used or a transgenic mouse model developed by Dr. Fred Van Leuven (K.U. Leuven, Belgium) and co-workers, with neuron-specific expression of a clinical mutant of the human amyloid precursor protein [V717I] […] Young transgenic mice have high levels of Aβ in the brain but no detectable Aβ deposition. At approximately 6-8 months of age, the transgenic mice start to display spontaneous, progressive accumulation of β-amyloid (Aβ) in the brain, eventually resulting in amyloid plaques within the subiculum, hippocampus and cortex. Animals treated with the Aβ42 lowering agent were examined and compared to those untreated or treated with vehicle and brain levels of soluble Aβ42 and total Aβ would be quantitated by standard techniques, for example, using ELISA.
(§2) A typical protocol for measuring Aβ42 lowering in vivo is shown but it is only one of many variations that could be used to optimize the levels of detectable Aβ. For example, Aβ42 lowering compounds were formulated in 20% of Captisol® (a sulfobutyl ether of β-cyclodextrin) in water or 20% hydroxypropyl β cyclodextrin. The Aβ42 lowering agents were administered as a single oral dose or by any acceptable route of administration to overnight fasted animals. After 4 h, the animals were sacrificed and Aβ42 levels were analysed.
(§3) Blood was collected by decapitation and exsanguinations in EDTA-treated collection tubes. Blood was centrifuged at 1900 g for 10 minutes (min) at 4° C. and the plasma recovered and flash frozen for later analysis. The brain was removed from the cranium and hindbrain. The cerebellum was removed and the left and right hemisphere were separated. The left hemisphere was stored at −18° C. for quantitative analysis of test compound levels. The right hemisphere was rinsed with phosphate-buffered saline (PBS) buffer and immediately frozen on dry ice and stored at −80° C. until homogenization for biochemical assays.
(§4) All samples were sonicated for 30 seconds on ice at 20% power output (pulse mode). Homogenates were centrifuged at 221.300×g for 50 min. The resulting high speed supernatants were then transferred to fresh tubes and were optionally further purified before the next step. A portion of the supernatant was neutralized with 10% 0.5 M Tris-HCl and this was used to quantify Aβtotal.
(§5) The obtained supernatants were purified with Water Oasis HLB reverse phase columns (Waters Corp., Milford, Mass.) to remove non-specific immunoreactive material from the brain lysates prior subsequent Aβ detection. Using a vacuum manifold, all solutions were passed through the columns at a rate of approximately 1 ml per min, so the vacuum pressure was adjusted accordingly throughout the procedure. Columns were preconditioned with 1 ml of 100% MeOH, before equilibration with 1 ml of H2O, Non-neutralized brain lysates were loaded onto the columns. The loaded samples were then washed twice with the first wash performed with 1 ml of 5% MeOH, and the second wash with 1 ml of 30% MeOH. Finally, the Aβ was eluted from the columns and into 100×30 mm glass tubes, with a solution of 90% MeOH with 2% NH4OH. The eluate was then transferred into 1.5 ml tubes and concentrated in a speed-vac concentrator on high heat for about 1.5-2 h at 70° C. The concentrated Aβ was then resuspended in UltraCULTURE General Purpose Serum-Free Medium (Cambrex Corp., Walkersville, Md.) plus Protease Inhibitors added.
To quantify the amount of Aβ42 in the soluble fraction of the brain homogenates, commercially available Enzyme-Linked-Immunosorbent-Assay (ELISA) kits were used (e.g. Innotest® β-Amyloid(1-42), Innogenetics N.V., Ghent, Belgium). The Aβ42 ELISA was performed using the plate provided with the kit only.

Aβtotal [4] = test: In vivo efficacy Method 1: brain soluble Aβtotal by ELISA; parameters: species or system mouse; details: Table 4a, single oral dose, overnight fasted animals, sacrificed after 4 h, soluble fraction of brain homogenates
From the text: as §1, §2, §3, §4
as §5, with “added. […]” for “added.”

Aβ42 [5] = test: Screening for γ-secretase-modulating activity, Method 2: Aβ42 Alphalisa on SKNBE2 cell supernatant; assay type: cell-based; details: Homo sapiens, Method 2, Table 3c, SKNBE2 cells carrying APP 695 wild type, overnight incubation
Method in brief: (§6)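 SKNBE2 cells expressing wild-type APP695, plated at 10^4 cells/well with compound at several concentrations and incubated overnight at 37° C. Aβ42 (C-terminal capture, N-terminal biotinylated detection) and Aβtotal (N-terminal/4G8 pair) measured in supernatant by AlphaLISA. IC50 from 4-parameter fit of percent of compound-free control.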

Aβtotal [6] = test: Screening for γ-secretase-modulating activity, Method 2: Aβtotal Alphalisa on SKNBE2 cell supernatant; assay type: cell-based; details: Homo sapiens, Method 2, Table 3c, SKNBE2 cells carrying APP 695 wild type, overnight incubation
Method in brief: as §6

[7] = Homo sapiens, Table 3a, 18 hours, XLfit, top/bottom fixed to 100 and 0, hill slope 1
[8] = Homo sapiens, Table 3b, non-linear regression of % of control, averaged IC50 values
[9] = Table 3a, 18 hours, XLfit, top/bottom fixed to 100 and 0, hill slope 1
[10] = Table 3b, non-linear regression of % of control, averaged IC50 values

IC50 (Aβ42 [1]; [7]) [nM]	IC50 (Aβ42 [1]; [8]) [nM]	IC50 (Aβtotal [2]; [7]) [nM]	IC50 (Aβtotal [2]; [8]) [nM]	IC50 (Aβ42 [1]; [9]) [nM]	IC50 (Aβ42 [1]; [10]) [nM]	IC50 (Aβtotal [2]; [9]) [nM]	IC50 (Aβtotal [2]; [10]) [nM]	IC50 (Aβ42 [5]) [nM]	IC50 (Aβtotal [6]) [nM]	Structure (SMILES)	Aβ42 (% Ctrl) _Mean (Aβ42 [3]) [% Ctrl]	Aβtotal (% Ctrl) _Mean (Aβtotal [4]) [% Ctrl]
				104	126	> 3000	> 3000			COc1cc(Nc2cccc3c2nc(C2CCCCC2)n3C)ccc1-n1cnc(C)c1 [Compound 38]	72	101
				20	25	> 1000	> 3000			COCCn1c(-c2cccc(OC)c2)nc2c(Nc3ccc(-n4cnc(C)c4)c(OC)c3)cccc21.Cl.Cl [Compound 54]	71	96
				50	37	> 3000	> 3000			Cc1ncn(-c2ccc(Nc3cccc4c3nc(-c3ccc(F)cc3)n4C)cn2)n1 [Compound 70]	64	99
				1850	1740	> 30000	> 10000			COc1cc(Nc2cccc3oc(-c4ccc(F)cc4)nc23)ccc1-n1cnc(C)c1 [Compound 80]	97	102
				147	141	> 3000	> 3000			COc1cc(Nc2cccc3oc(Cc4ccc(F)cc4)nc23)ccc1-n1cnc(C)c1 [Compound 82]	85	96
				10	10	> 1000	> 3000			COc1cc(-c2nc3c(Nc4ccc(-n5cnc(C)n5)c(OC)c4)cccc3n2C)ccc1Cl [Compound 85]	71	93
				36	33	> 3000	> 3000			COc1cc(Nc2cccc3c2nc(-c2ccc(F)cc2)n3C)ccc1-n1ncnc1C [Compound 91]	68	94
				331	331	> 10000	> 10000			Cc1cn(-c2ccc(Nc3cccc4c3nc(-c3ccc(F)cc3)n4C)nn2)cn1 [Compound 95]	85	95
				435	398	> 3000	> 10000			Cc1ncnn1-c1ccc(Nc2nccc3c2nc(-c2ccc(F)cc2)n3C)cc1F [Compound 97]	96	96
				50	44	> 3000	> 3000			Cc1cn(-c2ccc(Nc3nccc4c3nc(-c3ccc(F)cc3F)n4C)cc2F)cn1 [Compound 104]	65	110
								4	6170	COc1nc(Nc2cc(F)cc3c2nc(-c2ccc(F)cc2)n3C(C)C)ccc1-n1cnc(C)c1 [Compound 106]	87	104

The remaining lines, values behind:

Structure (SMILES)	IC50 (Aβ42 [1]; [7]) [nM]	IC50 (Aβ42 [1]; [8]) [nM]	IC50 (Aβtotal [2]; [7]) [nM]	IC50 (Aβtotal [2]; [8]) [nM]	IC50 (Aβ42 [1]; [9]) [nM]	IC50 (Aβ42 [1]; [10]) [nM]	IC50 (Aβtotal [2]; [9]) [nM]	IC50 (Aβtotal [2]; [10]) [nM]	IC50 (Aβ42 [5]) [nM]	IC50 (Aβtotal [6]) [nM]	Aβ42 (% Ctrl) _Mean (Aβ42 [3]) [% Ctrl]	Aβtotal (% Ctrl) _Mean (Aβtotal [4]) [% Ctrl]
COc1cc(Nc2cccc3c2nc(-c2ccc(F)cc2F)n3C)ccc1-n1cnc(C)c1 [Compound 3]	13	13	> 1000	> 3000							46	87
Cc1cn(-c2ccc(Nc3cccc4c3nc(-c3ccc(F)cc3)n4C)nc2)cn1 [Compound 5]	31	30	> 3000	> 3000							62	94
Cc1cn(-c2ccc(Nc3cccc4c3nc(-c3ccc(F)cc3)n4C)cc2)cn1 [Compound 7]	22	23	> 1000	> 3000							58	89
COc1cc(Nc2cccc3oc(CC(C)C)nc23)ccc1-n1cnc(C)c1 [Compound 18]	101	102	> 5000	> 10000							81	95
COc1cc(Nc2cccc3c2nc(N2CC(C)OC(C)C2)n3C)ccc1-n1cnc(C)c1 (stereo not shown) [Compound 44]					135	135	> 5000	> 5000			91	101
COc1cc(Nc2cccc3[nH]c(-c4ccccc4C)nc23)ccc1-n1cnc(C)c1 [Compound 45]	15	13	> 1000	> 3000							93	94
COc1cc(Nc2cccc3c2nc(-c2ccc(F)cc2)n3C)ccc1-n1cnc(Br)c1 [Compound 71]					28	28	> 1000	> 3000			88	102
Cc1ncn(-c2ccc(Nc3cccc4c3nc(-c3ccc(F)cc3)n4C(C)C)cc2F)n1.Cl.Cl [Compound 74]					65	59	> 3000	> 3000			86	99
COc1cc(Nc2cccc3c2nc(-c2cccc(Cl)c2)n3C)ccc1-n1ncnc1C [Compound 96]					31	24	> 1000	> 3000			62	88

Source: patent US8772504B2, “Substituted benzoxazole, benzimidazole, oxazolopyridine and imidazopyridine derivatives as gamma secretase modulators” (Janssen Pharmaceuticals, Inc., priority 2009, dated 2014)
